Assay results as given in patent US9365584B2, “Thieno [2,3-B] pyridinedione activators of AMPK and therapeutic uses thereof” (Poxel, priority 2009, dated 2016).

System: AMPK
Assay: AMPK enzyme activity assay (Delfia technology, AMARA peptide substrate)
Assay type: biochemical
Settings: compound at 30 μM vs AMP at 200 μM
Method in brief: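 Value is the ratio of compound (30 μM) to AMP (200 μM) response, each as % of basal control. Phosphorylation of the AMARA peptide after AMPK addition was read by Delfia with an anti-phosphoserine antibody.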

SMILES | Activity: Ratio between the % of control (basal activity) of compound of formula (1) at 30 μM and the % of control (basal activity) of AMP (natural substrate) at 200 μM
O=C1Nc2scc(-c3cccc(F)c3)c2C(=O)C1(F)c1ccccc1 (centres unmarked) [No 190, 5-fluoro-3-(3-fluorophenyl)-5-phenyl-7H-thieno[2,3-b]pyridine-4,6-dione] | B (50%≦B<75%)
Cc1ccc(-c2c(Cl)sc3c2C(=O)C(F)(c2ccccc2)C(=O)N3)c(O)c1F (centres unmarked) [No 191, 2-chloro-5-fluoro-3-(3-fluoro-2-hydroxy-4-methyl-phenyl)-5-phenyl-7H-thieno[2,3-b]pyridine-4,6-dione] | C (C≧75%)
Cc1ccc(-c2c(C)sc3c2C(=O)C(F)(c2ccccc2)C(=O)N3)c(O)c1F (centres unmarked) [No 192, 5-fluoro-3-(3-fluoro-2-hydroxy-4-methyl-phenyl)-2-methyl-5-phenyl-7H-thieno[2,3-b]pyridine-4,6-dione] | C (C≧75%)
O=C1Nc2scc(-c3cnccn3)c2C(=O)C1(F)c1ccccc1 (centres unmarked) [No 193, 5-fluoro-5-phenyl-3-pyrazin-2-yl-7H-thieno[2,3-b]pyridine-4,6-dione] | A (0%<A<50%)
O=C1Nc2scc(-c3ccc(O)c(F)c3)c2C(=O)C1(F)c1ccccc1 (centres unmarked) [No 194, 5-fluoro-3-(3-fluoro-4-hydroxy-phenyl)-5-phenyl-7H-thieno[2,3-b]pyridine-4,6-dione] | C (C≧75%)
COc1ccc(-c2c(F)sc3c2C(=O)C(F)(c2ccccc2)C(=O)N3)cc1F (centres unmarked) [No 195, 2,5-difluoro-3-(3-fluoro-4-methoxy-phenyl)-5-phenyl-7H-thieno[2,3-b]pyridine-4,6-dione] | C (C≧75%)
O=C(O)c1cccc(-c2csc3c2C(=O)C(F)(c2ccccc2)C(=O)N3)c1 (centres unmarked) [No 196, 3-(5-fluoro-4,6-dioxo-5-phenyl-7H-thieno[2,3-b]pyridin-3-yl)benzoic acid] | A (0%<A<50%)
O=C(O)c1cccc(-c2c(F)sc3c2C(=O)C(F)(c2ccccc2)C(=O)N3)c1 (centres unmarked) [No 197, 3-(2,5-difluoro-4,6-dioxo-5-phenyl-7H-thieno[2,3-b]pyridin-3-yl)benzoic acid] | A (0%<A<50%)
O=C(O)c1ccc(-c2csc3c2C(=O)C(F)(c2ccccc2)C(=O)N3)cc1 (centres unmarked) [No 198, 4-(5-fluoro-4,6-dioxo-5-phenyl-7H-thieno[2,3-b]pyridin-3-yl)benzoic acid] | A (0%<A<50%)
COc1ccc(-c2csc3c2C(=O)C(F)(c2ccc(F)cc2)C(=O)N3)cc1 (centres unmarked) [No 199, 5-fluoro-5-(4-fluorophenyl)-3-(4-methoxyphenyl)-7H-thieno[2,3-b]pyridine-4,6-dione] | B (50%≦B<75%)
COc1ccc(-c2c(F)sc3c2C(=O)C(F)(c2ccc(F)cc2)C(=O)N3)cc1 (centres unmarked) [No 200, 2,5-difluoro-5-(4-fluorophenyl)-3-(4-methoxyphenyl)-7H-thieno[2,3-b]pyridine-4,6-dione] | B (50%≦B<75%)
COc1ccc(-c2csc3c2C(=O)C(F)(c2ccccc2)C(=O)N3)cc1 (centres unmarked) [No 201, 5-fluoro-3-(4-methoxyphenyl)-5-phenyl-7H-thieno[2,3-b]pyridine-4,6-dione] | B (50%≦B<75%)
COc1ccc(-c2c(F)sc3c2C(=O)C(F)(c2ccccc2)C(=O)N3)cc1 (centres unmarked) [No 202, 2,5-difluoro-3-(4-methoxyphenyl)-5-phenyl-7H-thieno[2,3-b]pyridine-4,6-dione] | B (50%≦B<75%)
O=C1Nc2scc(-c3ccc(O)cc3)c2C(=O)C1(F)c1ccccc1 (centres unmarked) [No 203, 5-fluoro-3-(4-hydroxyphenyl)-5-phenyl-7H-thieno[2,3-b]pyridine-4,6-dione] | C (C≧75%)
O=C1Nc2scc(-c3cccc(O)c3)c2C(=O)C1(F)c1ccccc1 (centres unmarked) [No 204, 5-fluoro-3-(3-hydroxyphenyl)-5-phenyl-7H-thieno[2,3-b]pyridine-4,6-dione] | C (C≧75%)
COc1cccc(-c2csc3c2C(=O)C(F)(c2ccccc2)C(=O)N3)c1 (centres unmarked) [No 205, 5-fluoro-3-(3-methoxyphenyl)-5-phenyl-7H-thieno[2,3-b]pyridine-4,6-dione] | B (50%≦B<75%)

SMILES | Activity: Ratio between the % of control (basal activity) of compound of formula (1) at 30 μM and the % of control (basal activity) of AMP (natural substrate) at 200 μM
COc1cccc(-c2c(F)sc3c2C(=O)C(F)(c2ccccc2)C(=O)N3)c1 (centres unmarked) [No 206, 2,5-difluoro-3-(3-methoxyphenyl)-5-phenyl-7H-thieno[2,3-b]pyridine-4,6-dione] | C (C≧75%)
COc1ccccc1C1(F)C(=O)Nc2scc(-c3ccccc3)c2C1=O (centres unmarked) [No 207, 5-fluoro-5-(2-methoxyphenyl)-3-phenyl-7H-thieno[2,3-b]pyridine-4,6-dione] | A (0%<A<50%)
O=C1Nc2scc(-c3ccncc3)c2C(=O)C1(F)c1ccccc1 (centres unmarked) [No 208, 5-fluoro-5-phenyl-3-(4-pyridyl)-7H-thieno[2,3-b]pyridine-4,6-dione] | A (0%<A<50%)
Cc1cccc(C2(F)C(=O)Nc3sc(Cl)c(-c4cccc(F)c4)c3C2=O)c1 (centres unmarked) [No 210, 2-chloro-5-fluoro-3-(3-fluorophenyl)-5-(m-tolyl)-7H-thieno[2,3-b]pyridine-4,6-dione] | C (C≧75%)
N#Cc1cccc(C2(F)C(=O)Nc3sc(Cl)c(-c4cccc(F)c4)c3C2=O)c1 (centres unmarked) [No 211, 3-[2-chloro-5-fluoro-3-(3-fluorophenyl)-4,6-dioxo-7H-thieno[2,3-b]pyridin-5-yl]benzonitrile] | C (C≧75%)
O=C1Nc2sc(Cl)c(-c3cccc(F)c3)c2C(=O)C1(F)c1cccnc1 (centres unmarked) [No 212, 2-chloro-5-fluoro-3-(3-fluorophenyl)-5-(3-pyridyl)-7H-thieno[2,3-b]pyridine-4,6-dione] | C (C≧75%)
Cc1cccc(-c2c(Cl)sc3c2C(=O)C(F)(c2ccccc2)C(=O)N3)c1O (centres unmarked) [No 213, 2-chloro-5-fluoro-3-(2-hydroxy-3-methyl-phenyl)-5-phenyl-7H-thieno[2,3-b]pyridine-4,6-dione] | C (C≧75%)
O=C1Nc2scc(-c3cccnc3)c2C(=O)C1(F)c1ccccc1 (centres unmarked) [No 214, 5-fluoro-5-phenyl-3-(3-pyridyl)-7H-thieno[2,3-b]pyridine-4,6-dione] | A (0%<A<50%)
O=C1Nc2sc(Cl)c(-c3ccc(F)cc3O)c2C(=O)C1(F)c1cccc(F)c1 (centres unmarked) [No 215, 2-chloro-5-fluoro-3-(4-fluoro-2-hydroxy-phenyl)-5-(3-fluorophenyl)-7H-thieno[2,3-b]pyridine-4,6-dione] | C (C≧75%)
O=C1Nc2sc(Cl)c(-c3ccc(F)cc3O)c2C(=O)C1(Cl)c1ccccc1 (centres unmarked) [No 216, 2,5-dichloro-3-(4-fluoro-2-hydroxy-phenyl)-5-phenyl-7H-thieno[2,3-b]pyridine-4,6-dione] | C (C≧75%)
Cc1ccc(-c2c(Cl)sc3c2C(=O)C(F)(c2cccc(C#N)c2)C(=O)N3)cc1C (centres unmarked) [No 217, 3-[2-chloro-3-(3,4-dimethylphenyl)-5-fluoro-4,6-dioxo-7H-thieno[2,3-b]pyridin-5-yl]benzonitrile] | C (C≧75%)
CS(=O)(=O)c1ccc(C2(F)C(=O)Nc3sc(Cl)c(-c4ccc(F)cc4O)c3C2=O)cc1 (centres unmarked) [No 218, 2-chloro-5-fluoro-3-(4-fluoro-2-hydroxy-phenyl)-5-(4-methylsulfonylphenyl)-7H-thieno[2,3-b]pyridine-4,6-dione] | C (C≧75%)
COc1ccc(C2(F)C(=O)Nc3sc(Cl)c(-c4ccc(F)cc4O)c3C2=O)cc1OC (centres unmarked) [No 219, 2-chloro-5-(3,4-dimethoxyphenyl)-5-fluoro-3-(4-fluoro-2-hydroxy-phenyl)-7H-thieno[2,3-b]pyridine-4,6-dione] | C (C≧75%)
Cc1sc2c(c1-c1ccc(F)cc1O)C(=O)C(F)(c1ccccc1)C(=O)N2 (centres unmarked) [No 220, 5-fluoro-3-(4-fluoro-2-hydroxy-phenyl)-2-methyl-5-phenyl-7H-thieno[2,3-b]pyridine-4,6-dione] | B (50%≦B<75%)
O=C1Nc2sc(Cl)c(-c3ccccc3)c2C(=O)C1(Cl)c1ccccc1 (centres unmarked) [No 222, 2,5-dichloro-3,5-diphenyl-7H-thieno[2,3-b]pyridine-4,6-dione] | C (C≧75%)
CCc1ccc(-c2c(Cl)sc3c2C(=O)C(F)(c2ccccc2)C(=O)N3)c(O)c1 (centres unmarked) [No 223, 2-chloro-3-(4-ethyl-2-hydroxy-phenyl)-5-fluoro-5-phenyl-7H-thieno[2,3-b]pyridine-4,6-dione] | C (C≧75%)
